SMILES strings stand for the structures.

This note sets out measurements from ChEMBL document CHEMBL1136580, “Enterolosaponins A and B, novel triterpene bisdesmosides from Enterolobium contortisiliquum, and evaluation for their macrophage-oriented cytotoxic activity” (Bioorg Med Chem Lett, 2003).

A short description of the series: Compound was tested for its cytotoxic activity against BACI.2F5 mouse macrophages. The conditions noted are these: read-out: LD50 (the source's name).

For `CC(=O)N[C@@H]1[C@H](O[C@H]2CC[C@]3(C)[C@H]4CC=C5[C@@H]6CC(C)(C)[C@@H](OC(=O)/C=C/c7ccccc7)C[C@]6(C(=O)O[C@@H]6O[C@@H](CO)[C@@H](O)[C@H](O)[C@@H]6O[C@@H]6O[C@@H](C)[C@H](O[C@@H]7O[C@@H](CO)[C@H](O)[C@H]7O)[C@H](O[C@@H]7O[C@@H](CO)[C@@H](O)[C@H](O)[C@@H]7O)[C@H]6O)CC[C@@]5(C)[C@]4(C)CC[C@H]3C2(C)C)O[C@@H](CO[C@@H]2OC[C@H](O)[C@@H](O)[C@@H]2O[C@@H]2OC[C@@H](O)[C@H](O)[C@@H]2O)[C@@H](O)[C@@H]1O`, the CC50 is at most 3000 nM.
